Results: the NIST ThermoML archive (doi:10.1016/j.fluid.2009.08.016)
± gives the expanded uncertainty stated by the source.

Columns and labels:
[1] = Crystal; DTA
[2] = Molar enthalpy of transition or fusion; conditions: Crystal; DSC

SMILES: CC(C)CCC[C@@H](C)[C@H]1CC[C@H]2[C@@H]3CC=C4C[C@@H](O)CC[C@]4(C)[C@H]3CC[C@]12C [.DELTA.5-cholesten-3β-ol]
- Normal melting temperature [1]: 148.6 ± 0.5 °C
- Molar enthalpy of transition or fusion [2]: 6.81 ± 0.191 kcal/mol
